Test results from the NIST ThermoML archive (doi:10.1021/je5005752).
“And” between values parts separate entries of the source, which are not always exact repeats. Equal entries are not always repeated. Numbers after ± are expanded uncertainties.

What was measured:
[1] = xn = mol fraction of the nth substance listed; conditions: 101 kPa, Liquid, x2 = 0; for viscosity: Falling or rolling sphere viscometry; for mass density: Vibrating tube method
[2] = 101 kPa, Liquid; for viscosity: Falling or rolling sphere viscometry; for mass density: Vibrating tube method

Structure (SMILES) | viscosity ([1]; 288.15 K) | mass density ([1]; 288.15 K) | viscosity ([1]; 293.15 K) | mass density ([1]; 293.15 K) | viscosity ([2]; 288.15 K) | mass density ([2]; 288.15 K) | viscosity ([2]; 293.15 K) | mass density ([2]; 293.15 K) | viscosity ([2]; 298.15 K) | mass density ([2]; 298.15 K) | viscosity ([2]; 303.15 K) | mass density ([2]; 303.15 K) | viscosity ([2]; 308.15 K) | mass density ([2]; 308.15 K) | viscosity ([2]; 313.15 K) | mass density ([2]; 313.15 K) | viscosity ([2]; 318.15 K) | mass density ([2]; 318.15 K) | viscosity ([2]; 323.15 K) | mass density ([2]; 323.15 K) | also measured
CCCCO [butan-1-ol] + CCCC(=O)OCC | 3.365 ± 0.072 mPa·s | 813.46 ± 0.2 kg/m3 | 2.913 ± 0.062 mPa·s | 809.66 ± 0.2 kg/m3 | – | – | – | – | – | – | – | – | – | – | – | – | – | – | – | – | viscosity ([1]; 298.15 K): 2.563 ± 0.055 mPa·s; mass density ([1]; 298.15 K): 805.84 ± 0.2 kg/m3; viscosity ([1]; 303.15 K): 2.257 ± 0.048 mPa·s; mass density ([1]; 303.15 K): 801.99 ± 0.21 kg/m3; viscosity ([1]; 308.15 K): 1.994 ± 0.043 mPa·s; mass density ([1]; 308.15 K): 798.12 ± 0.21 kg/m3; viscosity ([1]; 313.15 K): 1.779 ± 0.038 mPa·s; mass density ([1]; 313.15 K): 794.22 ± 0.21 kg/m3; viscosity ([1]; 318.15 K): 1.576 ± 0.034 mPa·s; mass density ([1]; 318.15 K): 790.28 ± 0.21 kg/m3; viscosity ([1]; 323.15 K): 1.422 ± 0.03 mPa·s; mass density ([1]; 323.15 K): 786.29 ± 0.21 kg/m3
CCCO [propan-1-ol] + CCCC(=O)OCC | 2.514 ± 0.054 mPa·s | 807.75 ± 0.2 kg/m3 | 2.208 ± 0.047 mPa·s | 803.77 ± 0.21 kg/m3 | – | – | – | – | – | – | – | – | – | – | – | – | – | – | – | – | viscosity ([1]; 298.15 K): 1.95 ± 0.042 mPa·s; mass density ([1]; 298.15 K): 799.76 ± 0.21 kg/m3; viscosity ([1]; 303.15 K): 1.727 ± 0.037 mPa·s; mass density ([1]; 303.15 K): 795.72 ± 0.21 kg/m3; viscosity ([1]; 308.15 K): 1.542 ± 0.033 mPa·s; mass density ([1]; 308.15 K): 791.64 ± 0.21 kg/m3; viscosity ([1]; 313.15 K): 1.378 ± 0.029 mPa·s; mass density ([1]; 313.15 K): 787.52 ± 0.21 kg/m3; viscosity ([1]; 318.15 K): 1.236 ± 0.026 mPa·s; mass density ([1]; 318.15 K): 783.36 ± 0.21 kg/m3; viscosity ([1]; 323.15 K): 1.124 ± 0.024 mPa·s; mass density ([1]; 323.15 K): 779.14 ± 0.21 kg/m3
CCCC(=O)OCC [ethyl butanoate] | – | – | – | – | 0.7224 ± 0.016 mPa·s | 884.16 ± 0.27 kg/m3 | 0.6808 ± 0.015 mPa·s | 878.9 ± 0.27 kg/m3 | 0.643 ± 0.014 mPa·s | 873.62 ± 0.27 kg/m3 | 0.6072 ± 0.013 mPa·s | 868.33 ± 0.27 kg/m3 | 0.5736 ± 0.013 mPa·s | 863.02 ± 0.27 kg/m3 | 0.5424 ± 0.012 mPa·s and 0.5425 ± 0.012 mPa·s | 857.7 ± 0.27 kg/m3 | 0.5132 ± 0.011 mPa·s | 852.36 ± 0.27 kg/m3 | 0.487 ± 0.011 mPa·s | 847 ± 0.27 kg/m3 | –
CC(C)CCO [3-methylbutan-1-ol] + CCCC(=O)OCC | 5.057 ± 0.11 mPa·s | 812.29 ± 0.27 kg/m3 | 4.288 ± 0.094 mPa·s | 808.58 ± 0.27 kg/m3 | – | – | – | – | – | – | – | – | – | – | – | – | – | – | – | – | viscosity ([1]; 298.15 K): 3.671 ± 0.08 mPa·s; mass density ([1]; 298.15 K): 804.84 ± 0.27 kg/m3; viscosity ([1]; 303.15 K): 3.155 ± 0.069 mPa·s; mass density ([1]; 303.15 K): 801.09 ± 0.27 kg/m3; viscosity ([1]; 308.15 K): 2.73 ± 0.06 mPa·s; mass density ([1]; 308.15 K): 797.31 ± 0.27 kg/m3; viscosity ([1]; 313.15 K): 2.375 ± 0.052 mPa·s; mass density ([1]; 313.15 K): 793.51 ± 0.27 kg/m3; viscosity ([1]; 318.15 K): 2.076 ± 0.045 mPa·s; mass density ([1]; 318.15 K): 789.67 ± 0.27 kg/m3; viscosity ([1]; 323.15 K): 1.841 ± 0.04 mPa·s; mass density ([1]; 323.15 K): 785.79 ± 0.27 kg/m3
CC(C)CO [2-methyl-1-propanol] | – | – | – | – | 4.829 ± 0.1 mPa·s | 805.88 ± 0.19 kg/m3 | 4.052 ± 0.086 mPa·s | 802.03 ± 0.19 kg/m3 | 3.431 ± 0.073 mPa·s | 798.16 ± 0.2 kg/m3 | 2.923 ± 0.062 mPa·s | 794.25 ± 0.2 kg/m3 | 2.505 ± 0.053 mPa·s | 790.31 ± 0.2 kg/m3 | 2.161 ± 0.046 mPa·s | 786.31 ± 0.2 kg/m3 | 1.876 ± 0.04 mPa·s | 782.26 ± 0.2 kg/m3 | 1.652 ± 0.035 mPa·s | 778.14 ± 0.2 kg/m3 | –
CCCO [propan-1-ol] | – | – | – | – | 2.514 ± 0.054 mPa·s | 807.75 ± 0.2 kg/m3 | 2.208 ± 0.047 mPa·s | 803.77 ± 0.21 kg/m3 | 1.95 ± 0.042 mPa·s | 799.76 ± 0.21 kg/m3 | 1.727 ± 0.037 mPa·s | 795.72 ± 0.21 kg/m3 | 1.542 ± 0.033 mPa·s | 791.64 ± 0.21 kg/m3 | 1.378 ± 0.029 mPa·s | 787.52 ± 0.21 kg/m3 | 1.236 ± 0.026 mPa·s | 783.36 ± 0.21 kg/m3 | 1.124 ± 0.024 mPa·s | 779.14 ± 0.21 kg/m3 | –
CCCCCCO [hexan-1-ol] | – | – | – | – | 6.308 ± 0.14 mPa·s | 822.26 ± 0.27 kg/m3 | 5.332 ± 0.12 mPa·s | 818.7 ± 0.27 kg/m3 | 4.538 ± 0.099 mPa·s | 815.12 ± 0.27 kg/m3 | 3.896 ± 0.085 mPa·s | 811.52 ± 0.27 kg/m3 | 3.361 ± 0.073 mPa·s | 807.89 ± 0.27 kg/m3 | 2.917 ± 0.064 mPa·s | 804.25 ± 0.27 kg/m3 | 2.546 ± 0.056 mPa·s | 800.56 ± 0.27 kg/m3 | 2.241 ± 0.049 mPa·s | 796.85 ± 0.27 kg/m3 | –
CC(C)CCO [3-methylbutan-1-ol] | – | – | – | – | 5.057 ± 0.11 mPa·s | 812.29 ± 0.27 kg/m3 | 4.288 ± 0.094 mPa·s | 808.58 ± 0.27 kg/m3 | 3.671 ± 0.08 mPa·s | 804.84 ± 0.27 kg/m3 | 3.155 ± 0.069 mPa·s | 801.09 ± 0.27 kg/m3 | 2.73 ± 0.06 mPa·s | 797.31 ± 0.27 kg/m3 | 2.375 ± 0.052 mPa·s | 793.51 ± 0.27 kg/m3 | 2.076 ± 0.045 mPa·s | 789.67 ± 0.27 kg/m3 | 1.841 ± 0.04 mPa·s | 785.79 ± 0.27 kg/m3 | –
CCCCCCO [hexan-1-ol] + CCCC(=O)OCC | 6.308 ± 0.14 mPa·s | 822.26 ± 0.27 kg/m3 | 5.332 ± 0.12 mPa·s | 818.7 ± 0.27 kg/m3 | – | – | – | – | – | – | – | – | – | – | – | – | – | – | – | – | viscosity ([1]; 298.15 K): 4.538 ± 0.099 mPa·s; mass density ([1]; 298.15 K): 815.12 ± 0.27 kg/m3; viscosity ([1]; 303.15 K): 3.896 ± 0.085 mPa·s; mass density ([1]; 303.15 K): 811.52 ± 0.27 kg/m3; viscosity ([1]; 308.15 K): 3.361 ± 0.073 mPa·s; mass density ([1]; 308.15 K): 807.89 ± 0.27 kg/m3; viscosity ([1]; 313.15 K): 2.917 ± 0.064 mPa·s; mass density ([1]; 313.15 K): 804.25 ± 0.27 kg/m3; viscosity ([1]; 318.15 K): 2.546 ± 0.056 mPa·s; mass density ([1]; 318.15 K): 800.56 ± 0.27 kg/m3; viscosity ([1]; 323.15 K): 2.241 ± 0.049 mPa·s; mass density ([1]; 323.15 K): 796.85 ± 0.27 kg/m3
CCCCO [butan-1-ol] | – | – | – | – | 3.365 ± 0.072 mPa·s | 813.46 ± 0.2 kg/m3 | 2.913 ± 0.062 mPa·s | 809.66 ± 0.2 kg/m3 | 2.563 ± 0.055 mPa·s | 805.84 ± 0.2 kg/m3 | 2.257 ± 0.048 mPa·s | 801.99 ± 0.21 kg/m3 | 1.994 ± 0.043 mPa·s | 798.12 ± 0.21 kg/m3 | 1.779 ± 0.038 mPa·s | 794.22 ± 0.21 kg/m3 | 1.576 ± 0.034 mPa·s | 790.28 ± 0.21 kg/m3 | 1.422 ± 0.03 mPa·s | 786.29 ± 0.21 kg/m3 | –
CC(C)CO [2-methyl-1-propanol] + CCCC(=O)OCC | 4.829 ± 0.1 mPa·s | 805.88 ± 0.19 kg/m3 | 4.052 ± 0.086 mPa·s | 802.03 ± 0.19 kg/m3 | – | – | – | – | – | – | – | – | – | – | – | – | – | – | – | – | viscosity ([1]; 298.15 K): 3.431 ± 0.073 mPa·s; mass density ([1]; 298.15 K): 798.16 ± 0.2 kg/m3; viscosity ([1]; 303.15 K): 2.923 ± 0.062 mPa·s; mass density ([1]; 303.15 K): 794.25 ± 0.2 kg/m3; viscosity ([1]; 308.15 K): 2.505 ± 0.053 mPa·s; mass density ([1]; 308.15 K): 790.31 ± 0.2 kg/m3; viscosity ([1]; 313.15 K): 2.161 ± 0.046 mPa·s; mass density ([1]; 313.15 K): 786.31 ± 0.2 kg/m3; viscosity ([1]; 318.15 K): 1.876 ± 0.04 mPa·s; mass density ([1]; 318.15 K): 782.26 ± 0.2 kg/m3; viscosity ([1]; 323.15 K): 1.652 ± 0.035 mPa·s; mass density ([1]; 323.15 K): 778.14 ± 0.2 kg/m3
